The results in this text go back to patent US20110082130A1 (LIGAND PHARMACEUTICALS, INC., priority 2006, published 2011).

In the first test the target is T1, chimeric human H3 receptor (Homo sapiens, UniProt Q9Y5N1).
T1 construct: made in house; host or cells: Sf9 insect cells (baculovirus); P2 membrane preparation
T1 sequence (Q9Y5N1 with tags, fused parts or gaps): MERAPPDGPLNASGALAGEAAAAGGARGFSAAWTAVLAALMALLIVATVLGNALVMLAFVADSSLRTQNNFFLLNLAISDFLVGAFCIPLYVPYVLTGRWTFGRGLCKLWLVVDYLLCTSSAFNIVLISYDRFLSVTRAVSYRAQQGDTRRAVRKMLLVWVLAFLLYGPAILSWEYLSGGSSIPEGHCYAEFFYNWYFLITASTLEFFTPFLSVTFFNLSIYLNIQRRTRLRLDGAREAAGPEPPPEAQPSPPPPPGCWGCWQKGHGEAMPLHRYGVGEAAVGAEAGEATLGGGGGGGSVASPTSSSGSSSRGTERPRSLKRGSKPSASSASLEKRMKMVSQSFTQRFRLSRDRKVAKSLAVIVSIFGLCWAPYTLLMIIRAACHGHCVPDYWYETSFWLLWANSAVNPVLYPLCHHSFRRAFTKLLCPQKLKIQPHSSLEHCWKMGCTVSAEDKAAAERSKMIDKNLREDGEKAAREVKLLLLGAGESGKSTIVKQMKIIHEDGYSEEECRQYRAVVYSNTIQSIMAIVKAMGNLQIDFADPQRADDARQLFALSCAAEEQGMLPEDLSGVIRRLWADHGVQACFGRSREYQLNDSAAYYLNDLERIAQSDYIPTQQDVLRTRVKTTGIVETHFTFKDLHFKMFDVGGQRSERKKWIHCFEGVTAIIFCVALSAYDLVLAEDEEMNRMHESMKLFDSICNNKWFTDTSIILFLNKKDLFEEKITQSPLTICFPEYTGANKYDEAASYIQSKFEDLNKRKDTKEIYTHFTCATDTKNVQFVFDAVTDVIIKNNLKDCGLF
The test can be described thus: Chimeric human H3 receptor screening GTP binding assay (inhibition of histamine-stimulated GTP-gamma35S binding, Example 8). It is filed as biochemical. To be noted: 4 μM of the compound, 1 μM histamine, "†" in Ki of Table II, read-out: percent inhibition of the signal obtained with 1 μM histamine. In short, it runs like this: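 Values are percent inhibition of 1 μM histamine-stimulated GTP-gamma35S […] binding, with non-specific binding (10 μM GTP-gammaS) subtracted, by compounds tested at 4 μM. Membranes (35 μg) from Sf9 cells expressing chimeric human H3 with G-protein subunits were used in Tris pH 7.4 buffer with 10 μM GDP. Incubation lasted 60 min at room temperature, followed by filtration and scintillation counting.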
With `O=C(CN1CCc2cc(-c3cccc4c3oc3ccccc34)ccc2C1)N1CCN(C2CCCC2)CC1` [Compound 379, 2-[2-(4-cyclopentylpiperazin-1-yl)-2-oxoethyl]-6-dibenzo[b,d]furan-4-yl-1,2,3,4-tetrahydroisoquinoline], the inhibition at 4 µM is no less than 90%.

As for `CC(C)c1ccc(-c2ccc3c(c2)CCN(CC(=O)N2CCN(C(C)C)CC2)C3)cc1` [Compound 446, 6-(4-isopropylphenyl)-2-[2-(4-isopropylpiperazin-1-yl)-2-oxoethyl]-1,2,3,4-tetrahydroisoquinoline], the inhibition at 4 µM is no less than 90%.

`CCCCc1ccc(-c2ccc3c(c2)CCN(CC(=O)N2CCN(C4CCCCC4)CC2)C3)cc1` [Compound 453, 6-(4-butylphenyl)-2-[2-(4-cyclohexylpiperazin-1-yl)-2-oxoethyl]-1,2,3,4-tetrahydroisoquinoline]: the inhibition at 4 µM is no less than 90%.

With `CC(C)N1CCN(C(=O)CN2CCc3cc(-c4ccc(C(C)(C)C)cc4)ccc3C2)CC1` [Compound 474, 6-(4-tert-butylphenyl)-2-[2-(4-isopropylpiperazin-1-yl)-2-oxoethyl]-1,2,3,4-tetrahydroisoquinoline], the inhibition at 4 µM was no less than 90%.

For the molecule `Cc1ccc(-c2ccc3c(c2)CCN(CC(=O)N2CCN(C4CCCC4)CC2)C3)cc1C` [Compound 448, 2-[2-(4-cyclopentylpiperazin-1-yl)-2-oxoethyl]-6-(3,4-dimethylphenyl)-1,2,3,4-tetrahydroisoquinoline], the inhibition at 4 µM was no less than 90%.

Regarding `Cc1ccc(-c2ccc3c(c2)CCN(CC(=O)N2CCN(C4CCCC4)CC2)C3)c(F)c1` [Compound 421, 2-[2-(4-cyclopentylpiperazin-1-yl)-2-oxoethyl]-6-(2-fluoro-4-methylphenyl)-1,2,3,4-tetrahydroisoquinoline], the inhibition at 4 µM was no less than 90%.

For the molecule `O=C(CN1CCc2cc(-c3cccc(Cl)c3)ccc2C1)N1CCN(C2CCC2)CC1` [Compound 401, 6-(3-chlorophenyl)-2-[2-(4-cyclobutylpiperazin-1-yl)-2-oxoethyl]-1,2,3,4-tetrahydroisoquinoline], the inhibition at 4 µM was no less than 90%.

Regarding `Cc1ccc(-c2ccc3c(c2)CCN(CC(=O)N2CCN(C(C)C)CC2)C3)cc1C` [Compound 450, 6-(3,4-dimethylphenyl)-2-[2-(4-isopropylpiperazin-1-yl)-2-oxoethyl]-1,2,3,4-tetrahydroisoquinoline], the inhibition at 4 µM is no less than 90%.

Regarding `O=C(CN1CCc2cc(-c3ccccc3F)ccc2C1)N1CCN(C2CCCC2)CC1` [Compound 415, 2-[2-(4-cyclopentylpiperazin-1-yl)-2-oxoethyl]-6-(2-fluorophenyl)-1,2,3,4-tetrahydroisoquinoline], the inhibition at 4 µM was no less than 90%.

For the molecule `O=C(CN1CCc2cc(-c3ccc(OC(F)(F)F)cc3)ccc2C1)N1CCN(C2CCCCC2)CC1` [Compound 480, 2-[2-(4-cyclohexylpiperazin-1-yl)-2-oxoethyl]-6-[4-(trifluoromethoxy)phenyl]-1,2,3,4-tetrahydroisoquinoline], the inhibition at 4 µM was no less than 90%.

As for `Cc1ccc(F)c(-c2ccc3c(c2)CCN(CC(=O)N2CCN(C4CCCC4)CC2)C3)c1` [Compound 424, 2-[2-(4-cyclopentylpiperazin-1-yl)-2-oxoethyl]-6-(2-fluoro-5-methylphenyl)-1,2,3,4-tetrahydroisoquinoline], the inhibition at 4 µM was no less than 90%.

As to `Cc1ccc(-c2ccc3c(c2)CCN(CC(=O)N2CCN(C4CCC4)CC2)C3)cc1F` [Compound 426, 2-[2-(4-cyclobutylpiperazin-1-yl)-2-oxoethyl]-6-(3-fluoro-4-methylphenyl)-1,2,3,4-tetrahydroisoquinoline], the inhibition at 4 µM is no less than 90%.

The same test, now with this note: Table II "Ki", symbol †, 4 μM of the compound, 1 μM histamine, read-out: percent inhibition of the signal obtained with 1 μM histamine.
Turning to `COc1ccc(-c2ccc3c(c2)CCN(CC(=O)N2CCN(C4CCCCC4)CC2)C3)c(OC)c1` [Compound 565, 2-[2-(4-cyclohexylpiperazin-1-yl)-2-oxoethyl]-6-(2,4-dimethoxyphenyl)-1,2,3,4-tetrahydroisoquinoline], the inhibition at 4 µM is no less than 90%.

Take `CCN1CCN(C(=O)CN2CCc3cc(-c4cncnc4)ccc3C2)CC1` [Compound 603, 2-[2-(4-ethylpiperazin-1-yl)-2-oxoethyl]-6-pyrimidin-5-yl-1,2,3,4-tetrahydroisoquinoline]: the inhibition at 4 µM was no less than 90%.

Take `CSc1cccc(-c2ccc3c(c2)CCN(CC(=O)N2CCN(C4CCCCC4)CC2)C3)c1` [Compound 496, 2-[2-(4-cyclohexylpiperazin-1-yl)-2-oxoethyl]-6-[3-(methylthio)phenyl]-1,2,3,4-tetrahydroisoquinoline]: the inhibition at 4 µM is no less than 90%.

Consider `O=C(CN1CCc2cc(-c3cncnc3)ccc2C1)N1CCN(C2C[C@H]3CC[C@@H]2C3)CC1` (stereo partly drawn) [Compound 623, 2-(2-{4-[(1R,4S)-bicyclo[2.2.1]hept-2-yl]piperazin-1-yl}-2-oxoethyl)-6-pyrimidin-5-yl-1,2,3,4-tetrahydroisoquinoline], for which the inhibition at 4 µM is no less than 90%.

Turning to `O=C(CN1CCc2cc(-c3ccccc3Oc3ccccc3)ccc2C1)N1CCN(C2CCCC2)CC1` [Compound 576, 2-[2-(4-cyclopentylpiperazin-1-yl)-2-oxoethyl]-6-(2-phenoxyphenyl)-1,2,3,4-tetrahydroisoquinoline], the inhibition at 4 µM is no less than 90%.

`O=C(CN1CCc2cc(-c3cccc(F)c3F)ccc2C1)N1CCN(C2CCCC2)CC1` [Compound 600, 2-[2-(4-cyclopentylpiperazin-1-yl)-2-oxoethyl]-6-(2,3-difluorophenyl)-1,2,3,4-tetrahydroisoquinoline]: the inhibition at 4 µM is no less than 90%.

`CC1CCCC1N1C[C@@H]2C[C@H]1CN2C(=O)CN1CCc2cc(-c3cncnc3)ccc2C1` (stereo in doubt) [Compound 615, 2-{2-[(1S,4S)-5-(2-methylcyclopentyl)-2,5-diazabicyclo[2.2.1]hept-2-yl]-2-oxoethyl}-6-pyrimidin-5-yl-1,2,3,4-tetrahydroisoquinoline]: the inhibition at 4 µM was no less than 90%.

With `O=C(CN1CCc2cc(-c3ccc(F)c(F)c3)ccc2C1)N1CCN(C2CCCC2)CC1` [Compound 590, 2-[2-(4-cyclopentylpiperazin-1-yl)-2-oxoethyl]-6-(3,4-difluorophenyl)-1,2,3,4-tetrahydroisoquinoline], the inhibition at 4 µM is no less than 90%.

Regarding `O=C(CN1CCc2cc(-c3ccc(Oc4ccccc4)cc3)ccc2C1)N1CCN(C2CCCCC2)CC1` [Compound 488, 2-[2-(4-cyclohexylpiperazin-1-yl)-2-oxoethyl]-6-(4-phenoxyphenyl)-1,2,3,4-tetrahydroisoquinoline], the inhibition at 4 µM is no less than 90%.

For `O=C(CN1CCc2cc(-c3ccccc3Oc3ccccc3)ccc2C1)N1CCN(C2CCCCC2)CC1` [Compound 577, 2-[2-(4-cyclohexylpiperazin-1-yl)-2-oxoethyl]-6-(2-phenoxyphenyl)-1,2,3,4-tetrahydroisoquinoline], the inhibition at 4 µM is no less than 90%.

In the case of `COc1ccc(C)cc1-c1ccc2c(c1)CCN(CC(=O)N1CCN(C3CCC3)CC1)C2` [Compound 572, 2-[2-(4-cyclobutylpiperazin-1-yl)-2-oxoethyl]-6-(2-methoxy-5-methylphenyl)-1,2,3,4-tetrahydroisoquinoline], the inhibition at 4 µM is no less than 90%.

`O=C(CN1CCc2cc(-c3ccc(Oc4ccccc4)cc3)ccc2C1)N1CCN(C2CCC2)CC1` [Compound 486, 2-[2-(4-cyclobutylpiperazin-1-yl)-2-oxoethyl]-6-(4-phenoxyphenyl)-1,2,3,4-tetrahydroisoquinoline]: the inhibition at 4 µM is no less than 90%.

As to `CC(C)N1CCN(C(=O)CN2CCc3cc(-c4ccc(Oc5ccccc5)cc4)ccc3C2)CC1` [Compound 489, 2-[2-(4-isopropylpiperazin-1-yl)-2-oxoethyl]-6-(4-phenoxyphenyl)-1,2,3,4-tetrahydroisoquinoline], the inhibition at 4 µM is no less than 90%.

On to `COc1ccc(-c2ccc(-c3ccc4c(c3)CCN(CC(=O)N3CCN(C5CCC5)CC3)C4)cc2)cc1` [Compound 498, 2-[2-(4-cyclobutylpiperazin-1-yl)-2-oxoethyl]-6-(4′-methoxybiphenyl-4-yl)-1,2,3,4-tetrahydroisoquinoline], for which the inhibition at 4 µM was no less than 90%.

Turning to `COc1ccc(-c2ccc3c(c2)CCN(CC(=O)N2CCN(C4CCC4)CC2)C3)c(C)c1` [Compound 548, 2-[2-(4-cyclobutylpiperazin-1-yl)-2-oxoethyl]-6-(4-methoxy-2-methylphenyl)-1,2,3,4-tetrahydroisoquinoline], the inhibition at 4 µM is no less than 90%.

On to `CCOc1ccccc1-c1ccc2c(c1)CCN(CC(=O)N1CCN(C(C)C)CC1)C2` [Compound 569, 6-(2-ethoxyphenyl)-2-[2-(4-isopropylpiperazin-1-yl)-2-oxoethyl]-1,2,3,4-tetrahydroisoquinoline], for which the inhibition at 4 µM is no less than 90%.

`O=C(CN1CCc2cc(-c3ccccc3Oc3ccccc3)ccc2C1)N1CCN(C2CCC2)CC1` [Compound 575, 2-[2-(4-cyclobutylpiperazin-1-yl)-2-oxoethyl]-6-(2-phenoxyphenyl)-1,2,3,4-tetrahydroisoquinoline]: the inhibition at 4 µM is no less than 90%.

Take `COc1ccccc1-c1ccc2c(c1)CCN(CC(=O)N1CCN(C3CCCC3)CC1)C2` [Compound 552, 2-[2-(4-cyclopentylpiperazin-1-yl)-2-oxoethyl]-6-(2-methoxyphenyl)-1,2,3,4-tetrahydroisoquinoline]: the inhibition at 4 µM was no less than 90%.

Turning to `CN(CC#N)c1ccc2c(n1)CCN(CC(=O)N1CCN(C3CCC3)CC1)C2` [Compound 680, [{6-[2-(4-cyclobutylpiperazin-1-yl)-2-oxoethyl]-5,6,7,8-tetrahydro-1,6-naphthyridin-2-yl}(methyl)amino] acetonitrile], the inhibition at 4 µM was no less than 90%.

For `CSc1cccc(-c2ccc3c(c2)CCN(CC(=O)N2CCN(C(C)C)CC2)C3)c1` [Compound 497, 2-[2-(4-isopropylpiperazin-1-yl)-2-oxoethyl]-6-[3-(methylthio)phenyl]-1,2,3,4-tetrahydroisoquinoline], the inhibition at 4 µM was no less than 90%.
